The compounds below were run against Human TRPA1 (Homo sapiens, UniProt O75762) (assay: Assay 1: In vitro cellular testing of TRPA1 modulation (CHO-TREx, Fluo-3 calcium fluorescence, AITC agonist)). Conditions: CHO-TREx cells expressing human TRPA1; Fluo-3 fluorescence (FLIPR/Tetra); agonist 15 μM allyl isothiocyanate (AITC); 30 minute antagonist incubation.
Format: cell-based
Parameters: expressed in transfected cells; host or cells: CHO-TREx cells (Invitrogen), vector pcDNA4/TO
Procedure: Assay 1: In Vitro Cellular Testing of TRPA1 Modulation
Human TRPA1 (NCBI accession number NM_007332.1) was cloned into pcDNA4/TO. CHO-TREx cells (Invitrogen, Carlsbad, Calif.) were stably transfected with pcDNA4/TO-TRPA1 using lipofection to generate a clonal cell line that expressed human TRPA1 in a tetracycline-inducible manner. Culture medium used was Ham's F-12 supplemented with 10% fetal bovine serum, 2 mM L-glutamine, 5 μg/ml blasticidin and 200 μg/ml zeocin. Cells were seeded in black-walled clear-bottom 96-well plates at a density of 50,000 cells per well and cultured overnight at 37° C. with 5% CO2 in culture medium supplemented with 1 μg/ml tetracycline. On the day of the experiment, cells were washed 3 times with HEPES buffered saline (in mM: NaCl 137, MgCl2 0.5, KCl 2, dextrose 5, CaCl2 2 and HEPES 10; pH 7.4). Cells were then loaded with calcium-sensitive fluorescent dye by incubation in the presence of 4 μM Fluo-3 AM (TefLabs, Austin, Tex.) at room temperature in the dark for 60 minutes. After incubation with dye, cells were washed in assay buffer and, if appropriate, antagonists were added at this time. Following a further 30 minute incubation, cells were assayed using a Fluorometric Imaging Plate Reader (FLIPR™) or a Tetra (both manufactured by Molecular Devices, CA) to simultaneously monitor Fluo-3 fluorescence in all wells (λexcitation=488 nm, λemission=540 nm). Changes in fluorescence were monitored for 3 minutes after the addition of 15 μM allyl isothiocyanate (AITC) as an agonist. Concentration-dependence of receptor blocking was determined by exposing each well of cells in duplicate rows of a 96-well plate to a serial dilution of test compound. The concentration series usually started at 10 μM with a three-fold serial decrement in concentration. The magnitude of the response to agonist challenge was determined by measuring the fluorescence before and 3 minutes after the addition of the agonist. The degree of blocking was determined by comparing the response to that of negative (no added antagonist) and positive (10 μM ruthenium red) control wells. Data were analyzed using a non-linear regression program (Origin; OriginLab, MA) to fit the concentration-response data to a Hill function. Antagonist potencies were determined as the concentration required to produce 50% reduction in the response as compared to the negative and positive controls.

Sequence of Human TRPA1 (O75762 whole entry): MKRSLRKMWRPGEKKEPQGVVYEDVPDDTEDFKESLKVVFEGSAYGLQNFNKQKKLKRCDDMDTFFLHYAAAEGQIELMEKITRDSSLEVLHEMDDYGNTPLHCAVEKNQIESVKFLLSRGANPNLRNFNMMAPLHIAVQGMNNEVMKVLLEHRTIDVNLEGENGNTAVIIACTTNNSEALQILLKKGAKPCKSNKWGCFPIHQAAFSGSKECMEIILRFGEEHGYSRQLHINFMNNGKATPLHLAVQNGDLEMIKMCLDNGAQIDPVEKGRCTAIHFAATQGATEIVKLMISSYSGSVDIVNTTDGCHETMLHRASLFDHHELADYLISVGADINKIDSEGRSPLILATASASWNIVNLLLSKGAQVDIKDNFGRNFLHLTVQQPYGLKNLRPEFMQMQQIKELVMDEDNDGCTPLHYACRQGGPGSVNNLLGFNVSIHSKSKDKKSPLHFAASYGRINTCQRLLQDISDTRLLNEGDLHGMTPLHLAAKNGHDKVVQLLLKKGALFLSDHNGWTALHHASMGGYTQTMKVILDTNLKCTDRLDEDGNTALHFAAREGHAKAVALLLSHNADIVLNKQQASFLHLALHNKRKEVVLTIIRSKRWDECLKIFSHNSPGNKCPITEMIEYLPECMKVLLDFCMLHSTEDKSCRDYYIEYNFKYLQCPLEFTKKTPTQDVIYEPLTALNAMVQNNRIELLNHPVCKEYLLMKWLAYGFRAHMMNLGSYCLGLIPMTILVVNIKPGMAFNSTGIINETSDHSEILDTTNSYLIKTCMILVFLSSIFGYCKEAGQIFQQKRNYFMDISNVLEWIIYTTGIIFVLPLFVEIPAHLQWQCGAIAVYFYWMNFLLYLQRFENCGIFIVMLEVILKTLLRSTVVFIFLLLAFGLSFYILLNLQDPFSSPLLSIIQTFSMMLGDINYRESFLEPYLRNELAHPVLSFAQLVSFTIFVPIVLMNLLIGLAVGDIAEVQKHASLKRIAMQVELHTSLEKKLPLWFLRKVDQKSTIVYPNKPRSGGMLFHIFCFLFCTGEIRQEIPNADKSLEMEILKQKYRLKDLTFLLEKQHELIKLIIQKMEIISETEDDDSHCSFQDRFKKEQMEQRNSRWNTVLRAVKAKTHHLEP

`CC(NC(=O)[C@@H]1CCCN1S(=O)(=O)c1ccc(F)cc1)c1cc(-c2ccc(C(F)(F)F)cc2)ncn1` (single isomer, unassigned) [Example 181, (1S*,2S)-1-(4-Fluoro-benzenesulfonyl)-pyrrolidine-2-carboxylic acid {1-[6-(4-trifluoromethyl-phenyl)-pyrimidin-4-yl]-ethyl}-amide] and `Nc1nc(CNC(=O)[C@@H]2CCCN2S(=O)(=O)c2ccc(F)cc2)cc(-c2ccc(C(F)(F)F)cc2)n1` [Example 8, 1-(4-Fluoro-benzenesulfonyl)-pyrrolidine-2S-carboxylic acid [2-amino-6-(4-trifluoromethyl-phenyl)-pyrimidin-4-ylmethyl]-amide] are within 1.5-fold of each other in IC50: 0.602 µM for the first, 0.475 µM for the second.

Compared with `CC(NC(=O)[C@@H]1CCCN1S(=O)(=O)c1ccc(F)cc1)c1cc(-c2ccc(C(F)(F)F)cc2)ncn1` (single isomer, unassigned) [Example 182, (1R*,2S)-1-(4-Fluoro-benzenesulfonyl)-pyrrolidine-2-carboxylic acid {1-[6-(4-trifluoromethyl-phenyl)-pyrimidin-4-yl]-ethyl}-amide], `COc1nc(CNC(=O)[C@@H]2CCCN2S(=O)(=O)c2ccc(F)cc2)cc(-c2ccc(C(F)(F)F)cc2)n1` [Example 2, 1-(4-Fluoro-benzenesulfonyl)-pyrrolidine-2S-carboxylic acid [2-methoxy-6-(4-trifluoromethyl-phenyl)-pyrimidin-4-ylmethyl]-amide] is 23-fold lower in IC50: 0.923 µM for the first, 0.04 µM for the second.

Going from `CC(C)CN1CCN(c2nc(CNC(=O)[C@@H]3CCCN3S(=O)(=O)c3ccc(F)cc3)cc(-c3ccc(C(F)(F)F)cc3)n2)CC1` [Example 1, 1-(4-Fluoro-benzenesulfonyl)-pyrrolidine-2S-carboxylic acid [2-(4-isobutyl-piperazin-1-yl)-6-(4-trifluoromethyl-phenyl)-pyrimidin-4-ylmethyl]-amide] to `O=C(NCc1cc(-c2ccc(C(F)(F)F)cc2)nc(-c2cccnc2)n1)[C@@H]1CCCN1S(=O)(=O)c1ccc(F)cc1` [Example 3, 1-(4-Fluoro-benzenesulfonyl)-pyrrolidine-2S-carboxylic acid [2-pyridin-3-yl-6-(4-trifluoromethyl-phenyl)-pyrimidin-4-ylmethyl]-amide], the IC50 rises from 0.036 µM to 0.108 µM (3-fold). The first is the more potent here.

First: O=C(NCc1cc(-c2ccc(C(F)(F)F)cc2)nc(-c2ccc(C(F)(F)F)cc2)n1)[C@@H]1CCCN1S(=O)(=O)c1ccc(F)cc1 [Example 4, 1-(4-Fluoro-benzenesulfonyl)-pyrrolidine-2S-carboxylic acid [2,6-bis-(4-trifluoromethyl-phenyl)-pyrimidin-4-ylmethyl]-amide]
Second: O=C(NCc1cc(-c2ccc(C(F)(F)F)cc2)nc(-c2cccc(C(F)(F)F)c2)n1)[C@@H]1CCCN1S(=O)(=O)c1ccc(F)cc1 [Example 5, 1-(4-Fluoro-benzenesulfonyl)-pyrrolidine-2S-carboxylic acid [2-(3-trifluoromethyl-phenyl)-6-(4-trifluoromethyl-phenyl)-pyrimidin-4-ylmethyl]-amide]
The IC50 of the first is 3-fold lower: 0.003 µM for the first, 0.009 µM for the second.

First: O=C(NCc1cc(-c2ccc(C(F)(F)F)cc2)nc(-c2ccccc2C(F)(F)F)n1)[C@@H]1CCCN1S(=O)(=O)c1ccc(F)cc1 [Example 6, 1-(4-Fluoro-benzenesulfonyl)-pyrrolidine-2S-carboxylic acid [2-(2-trifluoromethyl-phenyl)-6-(4-trifluoromethyl-phenyl)-pyrimidin-4-ylmethyl]-amide]
Second: O=C(NCc1cc(-c2ccc(C(F)(F)F)cc2)nc(-c2ccncc2)n1)[C@@H]1CCCN1S(=O)(=O)c1ccc(F)cc1 [Example 7, 1-(4-Fluoro-benzenesulfonyl)-pyrrolidine-2S-carboxylic acid [2-pyridin-4-yl-6-(4-trifluoromethyl-phenyl)-pyrimidin-4-ylmethyl]-amide]
The IC50 of the first is 21-fold lower: 0.011 µM for the first, 0.229 µM for the second. The first is the more potent here.
